One assay concerns the target HSD17B13 enzyme (Homo sapiens (Human), UniProt Q7Z5P4). Briefly: hHSD17B13 IC50 Assay (FAC beta-estradiol), purified protein enzyme activity assay with NAD(P)H-Glo luciferase readout. The assay is classed as biochemical. As to conditions: geometric mean, 12 μM FAC beta-estradiol, 500 μM NAD+, read-out: hHSD17B13_IC50 GMean IC50. In a few lines: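 Purified human HSD17B13 (30 nM FAC) incubated with compound, beta-estradiol and NAD+ for 2 h at room temperature in the dark. NADH formation was detected by NAD(P)H-Glo luminescence after 1 h. RLUs normalized to uninhibited enzyme (vehicle) as zero effect.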

In another assay the target is wild type human HSD17B13 (Homo sapiens (Human), UniProt Q7Z5P4). Briefly: HEK_Beta-Est LCMS_IC50_Tekcel, whole-cell HEK-HSD17B13 inhibition assay, estrone production by LCMS. As to conditions: geometric mean, HEK cells stably expressing wild type human HSD17B13, 25 μM FAC beta-estradiol, read-out: HEK_Beta-Est LCMS_IC50—Tekcel GMean IC50. Type of assay: cell-based. In a few lines: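 HEK cells expressing wild-type human HSD17B13 were preincubated with compound for 1 hour at 37° C, then the beta-estradiol/NAD+ reaction ran for 2 hours at 37° C. Estrone formed was quantified by LCMS as product area ratio and normalized to uninhibited vehicle-control wells.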
Sequence of wild type human HSD17B13 (Q7Z5P4 20-300): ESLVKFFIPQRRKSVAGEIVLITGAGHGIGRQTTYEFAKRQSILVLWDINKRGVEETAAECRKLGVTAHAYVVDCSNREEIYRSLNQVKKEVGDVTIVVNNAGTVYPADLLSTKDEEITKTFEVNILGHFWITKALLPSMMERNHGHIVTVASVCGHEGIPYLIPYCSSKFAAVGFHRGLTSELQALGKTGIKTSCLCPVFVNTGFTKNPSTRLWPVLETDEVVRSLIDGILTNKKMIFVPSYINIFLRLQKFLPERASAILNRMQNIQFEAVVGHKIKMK

Counter-ions that a name gives are not always drawn.

Sequence of HSD17B13 enzyme (Q7Z5P4 20-300): as above

The IC50 is the concentration that gives 50% inhibition. As to `COc1cnc(-c2noc([C@]34CC[C@](CNC(=O)c5cc(F)c(O)c(F)c5)(CC3)CC4)n2)cn1` [Example 152, 3,5-difluoro-4-hydroxy-N-({4-[3-(5-methoxypyrazin-2-yl)-1,2,4-oxadiazol-5-yl]bicyclo[2.2.2]octan-1-yl}methyl)benzamide], the 50% inhibitory concentration (IC50) was found to be 10 nM at HSD17B13 enzyme and 140 nM on wild type human HSD17B13.

Turning to `Cc1ccc2nn([C@H]3CC[C@H](CNC(=O)c4cc(F)c(O)c(F)c4)CC3)cc2c1` [Example 131, 3,5-difluoro-4-hydroxy-N-{[(1r,4r)-4-(5-methyl-2H-indazol-2-yl)cyclo-hexyl]methyl} benzamide], the values for the half-maximal inhibitory concentration (IC50) on HSD17B13 enzyme and at wild type human HSD17B13 were 27 nM and 270 nM, respectively.

As for `COc1nn(C)cc1-c1ccc2cn([C@H]3CC[C@H](CNC(=O)c4cc(F)c(O)c(F)c4)CC3)nc2c1` [Example 42, 3,5-difluoro-4-hydroxy-N-({(1r,4r)-4-[6-(3-methoxy-1-methyl-1H-pyrazol-4-yl)-2H-indazol-2-yl]cyclohexyl}methyl) benzamide], the half-maximal inhibitory concentration (IC50) on HSD17B13 enzyme came to 11 nM; on wild type human HSD17B13, 260 nM.

As for `O=C(NC[C@H]1CC[C@H](n2cc3cc(F)ccc3n2)CC1)c1cc(F)c(O)c(F)c1` [Example 133, 3,5-difluoro-N-{[(1r,4r)-4-(5-fluoro-2H-indazol-2-yl)cyclohexyl]methyl}-4-hydroxybenzamide, ammonium salt], the IC50 turned out to be 29 nM on HSD17B13 enzyme and 280 nM at wild type human HSD17B13.

For `Cn1cc(-c2ccc3cn([C@H]4CC[C@H](CNC(=O)c5cc(F)c(O)c(F)c5)CC4)nc3c2)c(C2CC2)n1` [Example 35, N-({(1r,4r)-4-[6-(3-cyclopropyl-1-methyl-1H-pyrazol-4-yl)-2H-indazol-2-yl]cyclohexyl}methyl)-3,5-difluoro-4-hydroxybenzamide], the results for the concentration for half-maximal inhibition (IC50) on HSD17B13 enzyme and at wild type human HSD17B13 were 10 nM and 350 nM, respectively.

`O=C(NC[C@H]1CC[C@H](n2cc3ccc(F)cc3n2)CC1)c1cc(F)c(O)c(F)c1` [Example 16, 3,5-Difluoro-N-{[(1r,4r)-4-(6-fluoro-2H-indazol-2-yl)cyclohexyl]methyl}-4-hydroxybenzamide, ammonium salt]: the half-inhibitory concentration (IC50) on HSD17B13 enzyme was determined as 17 nM; on wild type human HSD17B13, 310 nM.

Regarding `O=C(NC[C@H]1CC[C@H](n2cc3ccc(-c4ccccn4)cc3n2)CC1)c1cc(F)c(O)c(F)c1` [Example 75, 3,5-difluoro-4-hydroxy-N-({(1r,4r)-4-[6-(pyridin-2-yl)-2H-indazol-2-yl]cyclohexyl}methyl)benzamide], the IC50 worked out at 19 nM on HSD17B13 enzyme and 210 nM at wild type human HSD17B13.

With `O=C(NC[C@H]1CC[C@H](c2nc(-c3ccc(C(F)(F)F)cn3)no2)CC1)c1cc(F)c(O)c(F)c1F` [Example 210, 2,3,5-trifluoro-4-hydroxy-N-{[(1r,4r)-4-{3-[5-(trifluoromethyl)pyridin-2-yl]-1,2,4-oxadiazol-5-yl}cyclohexyl]methyl}benzamide], the concentration for half-maximal inhibition (IC50) turned out to be 18 nM at HSD17B13 enzyme and 450 nM at wild type human HSD17B13.

In the case of `O=C(NC[C@H]1CC[C@H](c2nc(-c3cnc(C(F)(F)F)cn3)no2)CC1)c1cc(F)c(O)c(F)c1` [Example 139, 3,5-difluoro-4-hydroxy-N-{[(1r,4r)-4-{3-[5-(trifluoromethyl)pyrazin-2-yl]-1,2,4-oxadiazol-5-yl}cyclohexyl]methyl} benzamide], the half-maximal inhibitory concentration (IC50) was determined as 22 nM at HSD17B13 enzyme and 410 nM at wild type human HSD17B13.

As for `O=C(NC[C@]12CC[C@](n3cc4ccccc4n3)(CC1)CC2)c1cc(F)c(O)c(F)c1` [Example 202, 3,5-difluoro-4-hydroxy-N-{[4-(2H-indazol-2-yl)bicyclo [2.2.2]octan-1-yl]methyl}benzamide], the IC50 on HSD17B13 enzyme amounted to 49 nM; at wild type human HSD17B13 it was 220 nM.
